In publication PMC2263054, “Functional evolution of the vitamin D and pregnane X receptors” (BMC Evolutionary Biology, 2007):
Like-named read-outs stand apart in the source and are kept apart here.

Columns and labels:
Human VDR = biological target: T1, Human VDR (Homo sapiens, UniProt P11473); experiment: luciferase reporter transactivation assay in HepG2-NTCP cells, full-length hVDR with CYP3A4-PXRE-Luc; settings: for EC50: read-out: Human VDR EC50 ± SD; for EC50 / Human VDR EC50 ± SD: HepG2-NTCP cells, luciferase reporter; for Human VDR EC50 ± SD: unit not given, also cells saying No effect
T1 sequence (P11473 1-427): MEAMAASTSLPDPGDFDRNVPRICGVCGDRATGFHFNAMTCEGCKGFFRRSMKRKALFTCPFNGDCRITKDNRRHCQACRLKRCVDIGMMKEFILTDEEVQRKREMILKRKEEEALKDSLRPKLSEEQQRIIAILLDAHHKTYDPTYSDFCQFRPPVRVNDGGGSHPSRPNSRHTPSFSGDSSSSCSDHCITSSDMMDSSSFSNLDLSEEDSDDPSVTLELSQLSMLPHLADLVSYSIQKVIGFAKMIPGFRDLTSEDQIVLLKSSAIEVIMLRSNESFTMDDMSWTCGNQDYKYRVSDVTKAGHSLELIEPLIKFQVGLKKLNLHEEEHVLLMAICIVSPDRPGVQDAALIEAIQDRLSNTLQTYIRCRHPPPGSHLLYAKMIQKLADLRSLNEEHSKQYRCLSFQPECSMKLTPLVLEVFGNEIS

Mouse VDR = biological target: T2, Mouse VDR (Mus musculus, UniProt P48281); experiment: luciferase reporter transactivation assay in HepG2-NTCP cells, full-length mVDR with CYP3A4-PXRE-Luc; settings: for EC50: read-out: Mouse VDR EC50 ± SD
T2 sequence (P48281 1-422): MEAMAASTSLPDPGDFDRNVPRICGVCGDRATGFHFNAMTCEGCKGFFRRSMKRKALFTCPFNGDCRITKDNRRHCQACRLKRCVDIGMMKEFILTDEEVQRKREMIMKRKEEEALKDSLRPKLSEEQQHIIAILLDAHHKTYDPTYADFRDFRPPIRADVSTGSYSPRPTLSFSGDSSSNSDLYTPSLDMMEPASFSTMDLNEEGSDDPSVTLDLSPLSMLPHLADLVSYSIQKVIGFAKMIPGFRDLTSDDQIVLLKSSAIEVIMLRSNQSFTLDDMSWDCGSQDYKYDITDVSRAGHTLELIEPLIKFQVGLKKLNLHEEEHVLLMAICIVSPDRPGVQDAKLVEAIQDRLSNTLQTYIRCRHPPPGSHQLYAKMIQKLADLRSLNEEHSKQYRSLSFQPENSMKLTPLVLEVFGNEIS

Xenopus laevis VDR = biological target: T3, Xenopus laevis VDR (Xenopus laevis, UniProt O13124); experiment: luciferase reporter transactivation assay in HepG2-NTCP cells, GAL4/xlVDR LBD chimera with tk-UAS-Luc; type: cell-based; settings: for EC50 / Xenopus VDR EC50 ± SD: HepG2-NTCP cells, luciferase reporter; for EC50: read-out: Xenopus VDR EC50 ± SD; for Xenopus VDR relative efficacy: relative to maximal reference compound (1 μM calcitriol, efficacy = 1.0); for Xenopus VDR EC50 ± SD: unit not given, also cells saying No effect; for Effect on Xenopus laevis VDR: screening for activators, at least three concentrations of each drug
T3 sequence (O13124 90-422): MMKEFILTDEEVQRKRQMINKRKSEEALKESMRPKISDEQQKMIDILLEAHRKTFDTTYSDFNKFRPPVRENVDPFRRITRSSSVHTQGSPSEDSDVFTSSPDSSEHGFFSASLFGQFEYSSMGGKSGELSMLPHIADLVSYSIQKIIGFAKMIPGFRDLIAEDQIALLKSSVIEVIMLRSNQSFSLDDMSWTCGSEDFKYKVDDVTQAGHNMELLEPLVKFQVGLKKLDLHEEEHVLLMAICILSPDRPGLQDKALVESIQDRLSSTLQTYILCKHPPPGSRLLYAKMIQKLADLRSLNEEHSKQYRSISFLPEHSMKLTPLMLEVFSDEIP

Zebrafish VDR = biological target: T4, Zebrafish VDR (Danio rerio, UniProt Q9PTN2); experiment: luciferase reporter transactivation assay in HepG2-NTCP cells, GAL4/zfVDR LBD chimera with tk-UAS-Luc; type: cell-based; settings: for EC50 / Zebrafish VDR EC50 ± SD: HepG2-NTCP cells, luciferase reporter; for EC50: read-out: Zebrafish VDR EC50 ± SD; for Zebrafish VDR relative efficacy: relative to maximal reference compound (1 μM calcitriol, efficacy = 1.0); for Zebrafish VDR EC50 ± SD: unit not given, also cells saying No effect; for Effect on zebrafish VDR: screening for activators, at least three concentrations of each drug
T4 sequence (Q9PTN2 121-453): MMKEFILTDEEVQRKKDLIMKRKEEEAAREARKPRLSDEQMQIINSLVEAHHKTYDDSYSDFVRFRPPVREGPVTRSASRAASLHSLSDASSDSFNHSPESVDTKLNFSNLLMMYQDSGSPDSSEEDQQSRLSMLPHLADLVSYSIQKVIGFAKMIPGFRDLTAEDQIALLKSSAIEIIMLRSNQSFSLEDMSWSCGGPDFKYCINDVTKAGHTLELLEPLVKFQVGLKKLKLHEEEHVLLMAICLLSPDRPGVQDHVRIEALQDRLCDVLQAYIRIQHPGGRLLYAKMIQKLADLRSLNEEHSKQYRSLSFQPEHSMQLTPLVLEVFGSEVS

Sea lamprey VDR = biological target: T5, Sea lamprey VDR (Petromyzon marinus, UniProt Q7ZZY9); type: cell-based; settings: for EC50: read-out: Sea lamprey VDR EC50 ± SD; for Effect on sea lamprey VDR: screening for activators, at least three concentrations of each drug
T5 sequence (Q7ZZY9 92-406): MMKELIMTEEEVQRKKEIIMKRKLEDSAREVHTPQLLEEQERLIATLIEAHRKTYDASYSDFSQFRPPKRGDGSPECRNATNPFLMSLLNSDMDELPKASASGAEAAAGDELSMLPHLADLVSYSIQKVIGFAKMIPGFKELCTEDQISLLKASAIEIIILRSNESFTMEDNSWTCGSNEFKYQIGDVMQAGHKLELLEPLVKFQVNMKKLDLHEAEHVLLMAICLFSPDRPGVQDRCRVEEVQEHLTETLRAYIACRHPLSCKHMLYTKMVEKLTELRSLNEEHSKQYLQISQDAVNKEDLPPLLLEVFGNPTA

Ciona VDR/PXR = settings: HepG2-NTCP cells, luciferase reporter; unit not given; also cells saying No effect
[1] = test system: testosterone 6β-hydroxylation; experiment: testosterone hydroxylation (HPLC) in sea lamprey primary hepatocytes; type: cell-based; settings: concentration ranges per compound
Method: 100 μL of sample, calibration standard, or quality material standard were pipetted into separate microcentrifuge tubes and mixed with 100 μL of methanol. Samples were vortexed and centrifuged at 13,000 rpm for 4 min. The supernatant was then injected into the HPLC.
The flow rate was 1.2 mL/min and total run time was 25 min.

[2] = HepG2-NTCP cells, luciferase reporter
[3] = relative to maximal reference compound (0.5 μM calcitriol, efficacy = 1.0)
[4] = HepG2-NTCP cells, luciferase reporter, unit not given, also cells saying No effect

Molecule: C=C1CC[C@H](O)C/C1=C/C=C1\CCC[C@]2(C)[C@@H]([C@H](C)CC[C@@H](O)C(C)(C)O)CC[C@@H]12 [24(R),25-(OH)2-Vitamin D3]
- EC50 (Human VDR): 0.3 ± 0.02 µM
- Human VDR relative efficacy (Human VDR; relative to maximal reference compound (1 μM calcitriol, efficacy = 1.0)): 0.9
- EC50 (Mouse VDR; [2]): 0.3 ± 0.02 µM
- Mouse VDR relative efficacy (Mouse VDR; [3]): 1.7
- EC50 (Xenopus laevis VDR): 11 ± 1.7 µM
- Xenopus VDR relative efficacy (Xenopus laevis VDR): 0.20
- EC50 (Zebrafish VDR): 0.7 ± 0.06 µM
- Zebrafish VDR relative efficacy (Zebrafish VDR): 0.6
- EC50 (Sea lamprey VDR; [2]): 5.6 ± 0.8 µM
- Sea lamprey VDR relative efficacy (Sea lamprey VDR; [3]): 0.9
- Ciona VDR/PXR EC50 ± SD (Ciona VDR/PXR): No effect

Molecule: C=C1CC[C@H](O)C/C1=C/C=C1\CCC[C@]2(C)[C@@H]([C@H](C)CCCC(C)(C)O)CC[C@@H]12 [25-Hydroxyvitamin D3]
- Human VDR relative efficacy (Human VDR): 1.22
- EC50 (Human VDR; unit M): 1.5 ± 0.2 µM
- Mouse VDR relative efficacy (Mouse VDR): 2.62
- EC50 (Mouse VDR; [2]): 0.6 ± 0.1 µM
- EC50 (Xenopus laevis VDR): 11 ± 0.8 µM
- Xenopus VDR relative efficacy (Xenopus laevis VDR): 0.67
- EC50 (Zebrafish VDR): 7.3 ± 0.8 µM
- Zebrafish VDR relative efficacy (Zebrafish VDR): 0.91
- Sea lamprey VDR relative efficacy (Sea lamprey VDR): 0.63
- EC50 (Sea lamprey VDR; [2]): 19 ± 2.1 µM
- effect on testosterone 6β-hydroxylation [1]: None of these compounds produced significant increases in testosterone 6β-hydroxylation
- Ciona VDR/PXR EC50 ± SD (Ciona VDR/PXR): No effect

Molecule: C[C@H](CCC(=O)NCC(=O)O)[C@H]1CC[C@H]2[C@@H]3CC[C@@H]4C[C@H](O)CC[C@]4(C)[C@H]3CC[C@]12C [Glycolithocholic acid]
- Human VDR EC50 ± SD (Human VDR): No effect
- Mouse VDR relative efficacy (Mouse VDR): 0.28
- Xenopus VDR EC50 ± SD (Xenopus laevis VDR): No effect
- Zebrafish VDR EC50 ± SD (Zebrafish VDR): No effect
- Sea lamprey VDR EC50 ± SD (Sea lamprey VDR; [4]): No effect
- Ciona VDR/PXR EC50 ± SD (Ciona VDR/PXR): No effect

Molecule: C[C@H](CCC(=O)O)[C@H]1CC[C@H]2[C@@H]3CC[C@@H]4C[C@H](OS(=O)(=O)O)CC[C@]4(C)[C@H]3CC[C@]12C [Lithocholic acid 3-sulfate]
- Human VDR EC50 ± SD (Human VDR): No effect
- Mouse VDR EC50 ± SD (Mouse VDR; [4]): No effect
- Xenopus VDR EC50 ± SD (Xenopus laevis VDR): No effect
- Zebrafish VDR EC50 ± SD (Zebrafish VDR): No effect
- Sea lamprey VDR EC50 ± SD (Sea lamprey VDR): No effect
- Ciona VDR/PXR EC50 ± SD (Ciona VDR/PXR): No effect

Molecule: CC(=O)[C@H]1CC[C@H]2[C@@H]3CC=C4C[C@@H](O)CC[C@]4(C)[C@H]3CC[C@]12C [Pregnenolone]
- Effect on Xenopus laevis VDR (Xenopus laevis VDR): No effect
- Effect on zebrafish VDR (Zebrafish VDR): No effect
- Effect on sea lamprey VDR (Sea lamprey VDR): No effect
- effect on testosterone 6β-hydroxylation [1]: None of these compounds produced significant increases in testosterone 6β-hydroxylation

Molecule: C[C@H](CCC(=O)NCCS(=O)(=O)O)[C@H]1CC[C@H]2[C@@H]3CC[C@@H]4C[C@H](O)CC[C@]4(C)[C@H]3CC[C@]12C [Taurolithocholic acid]
- Human VDR EC50 ± SD (Human VDR): No effect
- Mouse VDR relative efficacy (Mouse VDR; [3]): 0.23
- Xenopus VDR EC50 ± SD (Xenopus laevis VDR): No effect
- Zebrafish VDR EC50 ± SD (Zebrafish VDR): No effect
- Sea lamprey VDR EC50 ± SD (Sea lamprey VDR; [4]): No effect
- Ciona VDR/PXR EC50 ± SD (Ciona VDR/PXR): No effect

Molecule: Pregnenolone sulfate
- Effect on Xenopus laevis VDR (Xenopus laevis VDR): No effect
- Effect on zebrafish VDR (Zebrafish VDR): No effect
- Effect on sea lamprey VDR (Sea lamprey VDR): No effect
- effect on testosterone 6β-hydroxylation [1]: None of these compounds produced significant increases in testosterone 6β-hydroxylation
